Converted amounts (≈) assume the structure as drawn. “And” between values parts separate entries of the source, which are not always exact repeats. Equal entries are not always repeated. Structures can show the parent of a compound that is named as a salt. Where two headings read alike, the source gives them in different places.
Columns and labels:
[1] = tested on: gram positive and negative bacteria; test: Antibacterial testing against gram positive and negative bacteria; assay type: cell-based
Protocol: In addition to the harmaline dimers compounds, other bicyclic indole compounds (203, 233, 476/6 and 504/6,) were also tested against gram positive and negative bacteria. Particularly, the indole ethyl urea molecules 203, 233 and the tryptamide dimer molecules 476/6, 504/6, as shown below, were tested.

S. aureus (ATCC 29213) [2] = test: Broth microdilution MIC assay, S. aureus; conditions: for MIC: Staphylococcus aureus; for concentration at which activity is shown / MIC (bacterial growth inhibition): S. aureus
Protocol: (§2) The concentration of compound required to visibly stop the growth of bacteria is known as minimum inhibitory concentration (MIC). Different concentrations of the compounds are tested for the exact same number of bacteria, and the growth is monitored with time.
(§3) Bacterial strains were purchased from the American Type Culture Collection (ATCC) for the studies.
(§4) The MIC assay procedure follows the guidelines set by the Clinical Laboratory Sciences Institute (CLSI).
(§5) To do this, bacteria were transferred from pure agar culture, aseptically transferred in 5 mL of Cation-Adjusted Mueller-Hinton Broth (CAMHB). The broth was incubated overnight at 35° C. to stationary phase to achieve a turbidity suspension. A spectrophotometer (SpectraMax ID5) was used to measure the turbidity (optical density—OD at 625 nm). The inoculum was prepared by adjusting the turbidity of overnight culture to 0.5 McFarland, which is equal to the defined number of bacteria 1×10^8 CFU/ml.
(§6) (b) Compound Dilution: All compounds used in the study were dissolved in sterile ultra-pure DMSO (VWR International, PA, USA) and maintained at −80° C. Stock solution of the compound was freshly prepared the day of use or is prepared from a frozen stock solution stored at −80° C. […] The compound solution was prepared at a desired concentration in DMSO, and 1/10 dilution was performed in a sterile CAMHB medium. This 10-fold dilution of stock solution was used for a 2-fold serial dilution in a 96-well plate to observe an inhibitory effect of the compound on bacterial growth. 100 μL of diluted drug solution was transferred to a first column of the 96-well plate. 50 μL of sterile CAMHB was transferred to each well from well 2 to well 12. Next, 50 μL was removed from well 1 and added to well 2. The contents from well 2 were mixed by pipetting up and down. Next, 50 µL were removed from well 2 and added to well 3. This process was continued till well 11 is reached. 50 μL was discarded from the well 11. Each compound concentration was tested in triplicate.
(§7) (c) Inoculation of 96-well plate: The same number of bacteria (1×10^5 CFU/mL) were prepared after 150-fold dilution of 0.5 McFarland inoculum and used to add in the wells of different drug concentrations. 50 μL of working inoculum was carefully added to each well, except the sterility well 12. Mixing is performed by gently flushing the inoculum in and out of the pipette tip four or five times, avoiding splashing and bubble formation.
(§8) (d) Incubation: Plates were incubated at 35° C. for 24 hours without shaking or agitation.
(§9) (e) Determination of MIC: After 18-24 hours of incubation, the plates were read for MIC. SpectraMax iD5 microplate reader was used to measure turbidity at different time points. Turbidity (OD) increases as the bacteria grow over time.

E. coli (ATCC 25922) = test: Broth microdilution MIC assay, E. coli; conditions: for MIC: Escherichia coli
Protocol: as §2, §3, §4, §5, §6, §7, §8, §9

[3] = tested on: Candida albicans (ATCC 18804); test: Antifungal broth microdilution MIC assay; assay type: cell-based; conditions: for MIC: Candida albicans, ATCC18804, C. albicans, read-out: MIC (antifungal growth inhibition)
Protocol: Synthesized compounds were tested for antifungal activity towards the fungus strain, Candida albicans. […] Different concentrations of the compounds were tested for the exact same number of fungi, and the growth is monitored with time. MIC was determined by using the broth microdilution assay. Fungus strain, C. albicans was purchased from ATCC (ID: 18804) for the studies. […] This solution was used to make a working solution by preparing a 1:50 dilution, followed by a 1:20 dilution, with RPMI 1640 medium to obtain 2× test inoculum. The 2× inoculum is diluted 1:1 to achieve the final inoculum size (0.5×10^3 to 2.5×10^3 cells per mL). RPMI 1640 medium was used with L-glutamine and phenol red as a pH indicator but without bicarbonate and a glucose concentration of 0.2%. […] All plates were then read visually under normal laboratory lighting using a mirror viewer. Wells were scored for the growth compared to that of the drug free control well. Plates were read at 530 nm with subtraction of the blank from the reading of each well. Turbidity (OD) increases as the fungus grows over time.

S. aureus (ATCC 29213) [4] = test: Minimum bactericidal concentration (MBC) assay, S. aureus; assay type: cell-based; conditions: Staphylococcus aureus, ATCC29213, 24 h, read-out: MBC (kills bacteria)
Protocol: (§1) (f) Determination of MBC: MBC was determined by sampling all the macroscopically clear wells. Before sampling, the wells were gently mixed by flushing them with a pipette, and a 5 μL was removed and placed on an agar plate suitable for the growth of the microbe being tested. The agar plate was divided into three parts to test three trials of a single concentration. The sample was allowed to be absorbed into the agar for ˜30 minutes. The plates were then incubated for 24 hours at 37° C. After incubation, the plates were examined to determine the compound concentration at which 99.9% killing was achieved.

MRSA (ATCC 43300) = test: Minimum bactericidal concentration (MBC) assay, MRSA; assay type: cell-based; conditions: Staphylococcus aureus
Protocol: as §1

[5] = tested on: MRSA: S. aureus resistant to methicillin and oxacillin (ATCC 43300); test: Broth microdilution MIC assay, MRSA; conditions: for MIC: Staphylococcus aureus, ATCC43300|MRSA, read-out: MIC (bacterial growth inhibition)
Protocol: as §2, §3, §4, §5, §6, §7, §8, §9

[6] = tested on: engineered Salmonella typhimurium strain (umuC, β-galactosidase)
Excerpt: The EBPI UMU-ChromoTest™ assay is used for the detection and quantification of genotoxicity of compounds and is based on the International Organization for Standardization protocol ISO 13829. The UMU-ChromoTest™ assay utilizes a native bacterial mechanism for the detection of compound genotoxicity. The bacteria used for the assay is an engineered Salmonella typhimurium strain developed to include a gene coding for the β-galactosidase (β-gal) enzyme tethered to the umuC, a damage response gene. DNA damage activates the SOS system to transcribe β-gal proportional to the level of SOS induction. The UMU-ChromoTest™ bacterial strain has modifications to increase sensitivity to genotoxins with (a) increased sensitivity for even limited damage, (b) modified outer membrane of the cell to increase permeability to exogenous materials, and (c) production of a color change on addition to chromogenic substrate (ONPG), which is a quantitative measure of genotoxic damage to bacterial DNA.
Rehydration of Dried Bacteria and Culture Growth: The bacteria were rehydrated and incubated at 37° C. for 16-18 hours. OD600 of the overnight culture should be 0.5 or at least above 0.1 at 600 nm.
Sample Preparation and Plate Setup: The dimer compounds were dissolved in DMSO. All dilution and controls were made in the solvent of 10% DMSO in sterile 0.85% saline. The pH of the compounds was adjusted to 7.0±0.2 before incubation with bacteria to facilitate bacterial growth and prevent degradation of ONPG later in the assay. The solutions of hydrochloric acid and sodium hydroxide were used to adjust pH with minimal addition volumes to prevent excessive sample dilution. Six samples were run at 4 dilutions at a time.
Preliminary Dilution of Bacteria: The overnight bacterial culture was diluted to 50% by performing a reinoculation with 5 mL of overnight growth and 5 mL of fresh Growth media. The reinoculated bacteria was inoculated for 1.5 hours at 37° C. The OD600 should be approximately 80% of the reading from overnight growth or slightly higher.
Preparation of Plate A: Distilled water (180 μL) was added to all wells, except for rows A to F, columns 1 to 3 and row H, columns 1 to 6. Rows A to F are used for 6 compounds per plate. The test compounds (360 μL) were added to the first three wells (three replicates) of the same microplate, such that wells 1-3 were a triplicate set of the highest concertation of test compound (360 μL). Wells 4-12 each contained 180 μL of distilled water. For dilution, half of the contents (180 μL) from wells 1-3 was transferred to wells 4-6 which makes a second triplicate set. For a third dilution, half of the contents from wells 4-6 were transferred to 7-9, and for the fourth triplicate set, half of the contents from wells 7-9 was transferred to 10-12. […]

E. faecalis (ATCC 29212) [7] = test: Minimum bactericidal concentration (MBC) assay, E. faecalis; assay type: cell-based, Enterococcus faecalis
Protocol: as §1

[8] = tested on: VREF: E. faecalis resistant to vancomycin (ATCC 51299); test: Broth microdilution MIC assay, VREF; conditions: Enterococcus faecalis, ATCC51299, read-out: MIC (bacterial growth inhibition)
Protocol: as §2, §3, §4, §5, §6, §7, §8, §9

E. faecalis (ATCC 29212) [9] = test: Broth microdilution MIC assay, E. faecalis; conditions: Enterococcus faecalis, ATCC29212, read-out: MIC (bacterial growth inhibition)
Protocol: as §2, §3, §4, §5, §6, §7, §8, §9

VREF (ATCC 51299) = test: Minimum bactericidal concentration (MBC) assay, VREF; assay type: cell-based, Enterococcus faecalis; conditions: Enterococcus faecalis, ATCC51299, read-out: MBC (bactericidal activity)
Protocol: as §1

[10] = ATCC29213, read-out: MIC (bacterial growth inhibition), S. aureus, time not given
[11] = ATCC29213, 24 h, read-out: MIC (bacterial growth inhibition), S. aureus, up to 24 hours
[12] = ATCC25922, read-out: MIC (bacterial growth inhibition), E. coli
[13] = ATCC29213, read-out: MIC (bacterial growth inhibition)

COc1ccc2c(CCNC(=O)CCCC(=O)NCCc3c[nH]c4cc(OC)ccc34)c[nH]c2c1 [476/6]
bacteriostatic/bactericidal activity [1]: no bacteriostatic/bactericidal activity observed

COc1ccc2c(CCNC(=O)CC(C)(C)CC(=O)NCCc3c[nH]c4cc(OC)ccc34)c[nH]c2c1 [504/6]
bacteriostatic/bactericidal activity [1]: no bacteriostatic/bactericidal activity observed

NC(=O)NCCc1c[nH]c2ccccc12 [Compound 203]
bacteriostatic/bactericidal activity [1]: no bacteriostatic/bactericidal activity observed

COc1ccc2[nH]cc(CCNC(N)=O)c2c1 [Compound 233]
bacteriostatic/bactericidal activity [1]: no bacteriostatic/bactericidal activity observed

COc1ccc2c3c([nH]c2c1)C(/C=C/c1ccccc1N)=NCC3 [GK317]
MIC (S. aureus (ATCC 29213) [2]; [10]): 100 µg/mL (≈ 315 µM)
MIC (bacterial growth inhibition) (E. coli (ATCC 25922); E. coli): didn't show any activity

COc1ccc2c3c([nH]c2c1)C(/C=C/c1cc(Cl)ccc1N)=NCC3 [GK350]
MIC (S. aureus (ATCC 29213) [2]; [10]): 25 µg/mL (≈ 71.1 µM)
concentration showing ~50% growth inhibition (E. coli (ATCC 25922); E. coli): 1.5 µg/mL

COc1ccc2c3c([nH]c2c1)C(/C=C/c1cc(C(=O)O)ccc1N)=NCC3 [GK360]
MIC (S. aureus (ATCC 29213) [2]; [10]): 12.5 µg/mL (≈ 34.6 µM)
MIC ([3]; after 24 hours of incubation): 50 µg/mL (≈ 138 µM)
concentration showing ~50% growth inhibition (E. coli (ATCC 25922); E. coli): 0.78 µg/mL

COc1ccc2c3c([nH]c2c1)C(/C=C/c1cc(Br)ccc1N)=NCC3 [GK395]
MIC (S. aureus (ATCC 29213) [2]; [10]): 25 µg/mL (≈ 63.1 µM)
MIC ([3]; after 48 hours of incubation): 50 µg/mL (≈ 126 µM)
concentration showing ~50% growth inhibition (E. coli (ATCC 25922); E. coli): 3.5 µg/mL

COc1ccc2c3c([nH]c2c1)C(CC(CC1=NCCc2c1[nH]c1cc(OC)ccc21)C1CC1)=NCC3 [GK480]
concentration at which activity is shown (S. aureus (ATCC 29213) [2]): 3.25 µg/mL
concentration at which activity is shown (E. coli (ATCC 25922); E. coli): 50 µg/mL

COc1ccc2c3c([nH]c2c1)C(CC(CC1=NCCc2c1[nH]c1cc(OC)ccc21)c1ccccn1)=NCC3 [GK517.2]
MIC (S. aureus (ATCC 29213) [2]; [11]): 64.7 µg/mL (≈ 125 µM)
MBC (S. aureus (ATCC 29213) [4]; S. aureus): > 129 µg/mL
MBC (MRSA (ATCC 43300); MRSA, read-out: MBC): > 129 µg/mL
MBC (MRSA (ATCC 43300); MRSA, read-out: MRSA-MBC): > 250 µM
MIC ([5]; 24 h): 64.7 µg/mL (≈ 125 µM)
MIC (bacterial growth inhibition) (E. coli (ATCC 25922); E. coli): no activity was observed

COc1ccc2c3c([nH]c2c1)C(CC(CC1=NCCc2c1[nH]c1cc(OC)ccc21)c1ccncc1)=NCC3 [GK517.4]
MIC (S. aureus (ATCC 29213) [2]; [11]): 64.7 µg/mL (≈ 125 µM)
MBC (S. aureus (ATCC 29213) [4]; S. aureus): 64.7 µg/mL (≈ 125 µM)
MBC (MRSA (ATCC 43300); MRSA, read-out: MBC): > 129 µg/mL
MBC (MRSA (ATCC 43300); MRSA, read-out: MRSA-MBC): > 250 µM
MIC ([5]; 24 h): 64.7 µg/mL (≈ 125 µM)
MIC (bacterial growth inhibition) (E. coli (ATCC 25922); E. coli): no activity was observed

COc1ccc2c3c([nH]c2c1)C(/C=C\c1cc(Br)ccc1/N=C/c1cc(Br)ccc1N)=NCC3 [GK578, 4-bromo-2-((E)-((4-bromo-2-((Z)-2-(7-methoxy-4,9-dihydro-3H-pyrido[3,4-b]indol-1-yl)vinyl)phenyl)imino)methyl)aniline]
concentration showing significant reduction in growth (E. coli (ATCC 25922); E. coli): 3.12 µg/mL
inhibition in growth (E. coli (ATCC 25922); incubated with E. coli for 10-75 hrs): 50%

COc1ccc2c3c([nH]c2c1)C(CC(CC1=NCCc2c1[nH]c1cc(OC)ccc21)c1c[nH]c2ccc(C#N)cc12)=NCC3 [GK580, 3-(1,3-bis(7-methoxy-4,9-dihydro-3H-pyrido[3,4-b]indol-1-yl)propan-2-yl)-1H-indole-5-carbonitrile]
MIC (bacterial growth inhibition) (S. aureus (ATCC 29213) [2]; time not given): 3.5 µg/mL (≈ 6.03 µM)
MIC (S. aureus (ATCC 29213) [2]; [10]): 5.5 µg/mL (≈ 9.47 µM)
genotoxic concentration (no genotoxicity up to) ([6]; S9 not stated): > 30 µg/mL
MIC ([3]; after 24 hours of incubation): 12.2 µg/mL (≈ 21.1 µM)
MIC ([3]; after 48 hours of incubation): 12.2 µg/mL (≈ 21.1 µM)
concentration inhibiting fungal growth ([3]; time not stated): 12.5 µg/mL
MBC (S. aureus (ATCC 29213) [4]; S. aureus): 11 µg/mL (≈ 18.9 µM)
MBC (kills bacteria) (E. faecalis (ATCC 29212) [7]): > 88 µg/mL
MBC (MRSA (ATCC 43300); MRSA, read-out: MBC): 7 µg/mL
MIC [8]: > 88 µg/mL
MIC [5]: 3.5 µg/mL (≈ 6.03 µM)
MIC (E. faecalis (ATCC 29212) [9]): 44 µg/mL (≈ 75.8 µM)
MIC (E. coli (ATCC 25922); [12]): 12.5 µg/mL (≈ 21.5 µM)

COc1ccc2c3c([nH]c2c1)C(CC(CC1=NCCc2c1[nH]c1cc(OC)ccc21)c1ccc(C(F)(F)F)nc1)=NCC3 [GK585]
MIC (S. aureus (ATCC 29213) [2]; [10]): 73.2 µg/mL (≈ 125 µM)
genotoxicity ([6]; at 12.5 and 25 μM): no genotoxicity
genotoxicity ([6]; at 50 and 100 μM): interfered with testing protocols
MBC (S. aureus (ATCC 29213) [4]; S. aureus): > 146 µg/mL
MBC (MRSA (ATCC 43300); MRSA, read-out: MBC): > 146 µg/mL
MBC (MRSA (ATCC 43300); MRSA, read-out: MRSA-MBC): > 250 µM
MIC [5]: 73.2 µg/mL (≈ 125 µM)
MIC (bacterial growth inhibition) (E. coli (ATCC 25922); E. coli): No bacteriostatic or bactericidal activities were observed

COc1ccc2c3c([nH]c2c1)C(CC(CC1=NCCc2c1[nH]c1cc(OC)ccc21)c1c[nH]c2ccc(C(=O)O)cc12)=NCC3 [GK599.HCl]
concentration at which activity is shown (S. aureus (ATCC 29213) [2]): 12.5 µg/mL
concentration at which activity is shown ([5]; MRSA): 12.5 µg/mL
concentration at which activity is shown (E. coli (ATCC 25922); E. coli): 50 µg/mL

COc1ccc2c3c([nH]c2c1)C(CC(CC1=NCCc2c1[nH]c1cc(OC)ccc21)c1c[nH]c2ccc(C(=O)O)cc12)=NCC3 [GK599]
concentration at which activity is shown (S. aureus (ATCC 29213) [2]): 6.25 µg/mL
concentration at which activity is shown (E. coli (ATCC 25922); E. coli): 100 µg/mL

COc1ccc2c3c([nH]c2c1)C(CC(CC1=NCCc2c1[nH]c1cc(OC)ccc21)c1c[nH]c2cccc([N+](=O)[O-])c12)=NCC3 [GK600]
MIC (bacterial growth inhibition) (S. aureus (ATCC 29213) [2]; time not given): 3.5 µg/mL (≈ 5.83 µM)
MIC (S. aureus (ATCC 29213) [2]; [10]): 3.1 µg/mL (≈ 5.16 µM)
MIC [5]: 2.75 µg/mL (≈ 4.58 µM)
MIC (bacterial growth inhibition) (E. coli (ATCC 25922); E. coli): 6.25 µg/mL (≈ 10.4 µM)
MIC (E. coli (ATCC 25922); [12]): 12.5 µg/mL (≈ 20.8 µM)

COc1ccc2c3c([nH]c2c1)C(C)=NCC3 [Harmaline, reference compound]
MIC (S. aureus (ATCC 29213) [2]; [13]): 707 µg/mL and 3300 µM
MIC (E. coli (ATCC 25922); ATCC25922, read-out: MIC (bacterial growth inhibition)): 707 µg/mL and 3300 µM

CN[C@H](CC(C)C)C(=O)N[C@H]1C(=O)N[C@@H](CC(N)=O)C(=O)N[C@H]2C(=O)N[C@H]3C(=O)N[C@H](C(=O)N[C@H](C(=O)O)c4cc(O)cc(O)c4-c4cc3ccc4O)[C@H](O)c3ccc(c(Cl)c3)Oc3cc2cc(c3O[C@@H]2O[C@H](CO)[C@@H](O)[C@H](O)[C@H]2O[C@H]2C[C@](C)(N)[C@H](O)[C@H](C)O2)Oc2ccc(cc2Cl)[C@H]1O [Vancomycin, reference compound]
MIC (S. aureus (ATCC 29213) [2]; [13]): 1.56 µg/mL (≈ 1.08 µM)
MBC (S. aureus (ATCC 29213) [4]): 1.56 µg/mL (≈ 1.08 µM)
MBC (kills bacteria) (E. faecalis (ATCC 29212) [7]): 6.25 µg/mL (≈ 4.31 µM)
MBC (MRSA (ATCC 43300)): 1.56 µg/mL
MIC [8]: 25 µg/mL (≈ 17.3 µM)
MIC [5]: 1.56 µg/mL (≈ 1.08 µM)
MBC (VREF (ATCC 51299)): > 100 µg/mL
MIC (E. faecalis (ATCC 29212) [9]): 3.12 µg/mL (≈ 2.15 µM)

Reference: patent publication US20240002405A1, “ANTIMICROBIAL COMPOUNDS, SYNTHESIS METHODS, AND USES THEREOF” (Ankh Life Sciences Limited, priority 2022, published 2024)
